Experiments:
Experiment in all cases: Bliss interaction score (quartile over a dose matrix) (fitness difference); higher = more antagonism (negative = synergy)
[1] = system: B. subtilis 168
In short: (§1)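 OD595 was read at entry into stationary phase and expressed relative to the robust mean of the no-drug wells on the same plate, capped at 1. The resulting ratio is the fitness value. The Bliss score, observed fitness minus product-based expected fitness with single-drug fitness inferred from combinations, is summarised by quartiles over technical, biological and donor/recipient replicates.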

[2] = system: S. aureus DSM 20231
In short: as §1

[3] = system: S. aureus Newman
In short: as §1

[4] = system: S. pneumoniae D39V
In short: as §1
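Further: first quartile when negative (synergy) and third quartile when positive (antagonism).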

| SMILES | Bliss interaction score [1] | Bliss interaction score [2] | Bliss interaction score [3] | Bliss interaction score [4] |
| --- | --- | --- | --- | --- |
| CC(=O)Oc1ccccc1C(=O)O [Acetylsalicylicacid] + CN(C)[C@@H]1C(O)=C(C(N)=O)C(=O)[C@@]2(O)C(O)=C3C(=O)c4c(O)ccc(Cl)c4[C@@](C)(O)[C@H]3C[C@@H]12 [Clortetracycline] | -0.311 | -0.101 | -0.0574 | -0.0497 |
| N#CC(C#N)=NNc1cccc(Cl)c1 [CCCP] + CN(C)c1cc(NC(=O)CNC(C)(C)C)c(O)c2c1C[C@H]1C[C@H]3[C@H](N(C)C)C(O)=C(C(N)=O)C(=O)[C@@]3(O)C(O)=C1C2=O [Tigecycline] | -0.0512 | 0.0272 | -0.0359 | 0.102 |
| CN(C)[C@@H]1C(O)=C(C(N)=O)C(=O)[C@@]2(O)C(O)=C3C(=O)c4c(O)ccc(Cl)c4[C@@](C)(O)[C@H]3C[C@@H]12 [Clortetracycline] + CN(N=O)C(=O)N[C@@H](C=O)[C@@H](O)[C@H](O)[C@H](O)CO [Streptozotocin] | 0.073 | 0.0625 | 0.0347 | -0.0534 |
| COc1cccc2c1C(=O)c1c(O)c3c(c(O)c1C2=O)C[C@@](O)(C(=O)CO)C[C@@H]3O[C@H]1C[C@H](N)[C@H](O)[C@H](C)O1 [Doxorubicin] + C[C@H]1c2cccc(O)c2C(=O)C2=C(O)[C@]3(O)C(=O)C(C(N)=O)=C(O)[C@@H](N(C)C)[C@@H]3[C@@H](O)[C@@H]21 [Doxycycline] | 0.0384 | 0.0574 | -0.0163 | -0.144 |
| CC(=O)Oc1ccccc1C(=O)O [Acetylsalicylicacid] + CN[C@H](CC(C)C)C(=O)N[C@H]1C(=O)N[C@@H](CC(N)=O)C(=O)N[C@H]2C(=O)N[C@H]3C(=O)N[C@H](C(=O)N[C@H](C(=O)O)c4cc(O)cc(O)c4-c4cc3ccc4O)[C@H](O)c3ccc(c(Cl)c3)Oc3cc2cc(c3O[C@@H]2O[C@H](CO)[C@@H](O)[C@H](O)[C@H]2O[C@H]2C[C@](C)(N)[C@H](O)[C@H](C)O2)Oc2ccc(cc2Cl)[C@H]1O [Vancomycin] | -0.0629 | -0.0542 | 0.0599 | 0.114 |
| CC(=O)Oc1ccccc1C(=O)O [Acetylsalicylicacid] + Cc1cc(NS(=O)(=O)c2ccc(N)cc2)no1 [Sulfamethoxazol] | 0.0808 | -0.0892 | -0.0624 | -0.0493 |
| CN(C)[C@@H]1C(O)=C(C(N)=O)C(=O)[C@@]2(O)C(O)=C3C(=O)c4c(O)ccc(Cl)c4[C@@](C)(O)[C@H]3C[C@@H]12 [Clortetracycline] + COc1c(N2C[C@@H]3CCCN[C@@H]3C2)c(F)cc2c(=O)c(C(=O)O)cn(C3CC3)c12 [Moxifloxacin] | -0.0182 | 0.119 | 0.101 | 0.0374 |
| CN(C)[C@@H]1C(O)=C(C(N)=O)C(=O)[C@@]2(O)C(O)=C3C(=O)c4c(O)ccc(Cl)c4[C@@](C)(O)[C@H]3C[C@@H]12 [Clortetracycline] + CN(C)c1cc(NC(=O)CNC(C)(C)C)c(O)c2c1C[C@H]1C[C@H]3[C@H](N(C)C)C(O)=C(C(N)=O)C(=O)[C@@]3(O)C(O)=C1C2=O [Tigecycline] | 0.0768 | -0.14 | -0.0522 | -0.0325 |
| CC(=O)Oc1ccccc1C(=O)O [Acetylsalicylicacid] + CC1(C)S[C@@H]2[C@H](NC(=O)Cc3ccccc3)C(=O)N2[C@H]1C(=O)O [PenicillinG] | 0.117 | 0.101 | 0.0702 | -0.0595 |
| N#CC(C#N)=NNc1cccc(Cl)c1 [CCCP] + CC1=C(C(=O)O)N2C(=O)[C@@H](NC(=O)[C@H](N)c3ccccc3)[C@H]2SC1 [Cephalexin] | 0.0431 | 0.0708 | -0.0498 | -0.0759 |
| N#CC(C#N)=NNc1cccc(Cl)c1 [CCCP] + O=C(N[C@H](CO)[C@H](O)c1ccc([N+](=O)[O-])cc1)C(Cl)Cl [Chloramphenicol] | -0.0662 | -0.0344 | 0.076 | -0.0866 |
| N#CC(C#N)=NNc1cccc(Cl)c1 [CCCP] + CC[C@H]1OC(=O)[C@H](C)C(=O)[C@H](C)[C@@H](O[C@@H]2O[C@H](C)C[C@H](N(C)C)[C@H]2O)[C@](C)(OC)C[C@@H](C)C(=O)[C@H](C)[C@H]2N(CCCCn3cnc(-c4cccnc4)c3)C(=O)O[C@]12C [Telithromycin] | -0.0441 | -0.0246 | -0.0206 | -0.0245 |
| CC(=O)Oc1ccccc1C(=O)O [Acetylsalicylicacid] + CCN(CC)CCOC(=O)c1ccc(N)cc1 [Procaine] | 0.0531 | 0.0998 | -0.0687 | 0.0662 |
| CC1(C)S[C@@H]2[C@H](NC(=O)Cc3ccccc3)C(=O)N2[C@H]1C(=O)O [PenicillinG] + CCN(CC)CCOC(=O)c1ccc(N)cc1 [Procaine] | 0.0367 | -0.0657 | 0.0542 | 0.0857 |
| CN(C)[C@@H]1C(O)=C(C(N)=O)C(=O)[C@@]2(O)C(O)=C3C(=O)c4c(O)ccc(Cl)c4[C@@](C)(O)[C@H]3C[C@@H]12 [Clortetracycline] + C/C(=C\C(=O)OCCCCCCCCC(=O)O)C[C@@H]1OC[C@H](C[C@@H]2O[C@H]2[C@@H](C)[C@H](C)O)[C@@H](O)[C@H]1O [Pseudomonic acid] | -0.0689 | 0.0276 | 0.0209 | 0.0729 |
| CO/N=C(\C(=O)N[C@@H]1C(=O)N2C(C(=O)O)=C(COC(C)=O)CS[C@H]12)c1csc(N)n1 [Cefotaxime] + CC1(C)S[C@@H]2[C@H](NC(=O)Cc3ccccc3)C(=O)N2[C@H]1C(=O)O [PenicillinG] | -0.151 | -0.0835 | -0.0351 | -0.0791 |
